For this test, the system named is passively sensitized strip of pulmonary parenchyma (guinea pig). In words: inhibition of antigen-induced constriction of passively sensitized guinea pig pulmonary parenchyma strips in vitro (organ bath). Type of test: cell-based, guinea pig (Pirbright-White). To be noted: Cavia porcellus, 20 min; Superfusion; Concentration 10/μM (so in the source); test substance preincubated 20 minutes at 37° C., then ovalbumin constriction; percentage reduction of constriction amplitude vs untreated control constrictions. From the text: Activity of the inventive compounds was shown by the following testing in vitro. […] The method employed was as described herewith:
Pirbright-White guinea pigs were stunned by a blow to the neck and bled. The lungs were flushed largely free of blood in situ with Krebs' buffer, pH 7.4.
Then the lung was removed, cut into strips (approx. 20×4×4 mm) and the strips were passively sensitized for one hour at room temperature with a 1:50 dilution of a homologous anti-ovalbumin antiserum and then washed once with Krebs' buffer.
The antiserum had previously been produced as described by Davies et al., (Quantitative studies on anaphylaxis in guinea pigs passively sensitized with homologous antibody. Inter. Arch. Allergy 41, 648-654 (1971)) in guinea pigs of the same strain by repeated injection of ovalbumin (2×crystallized) with the addition of complete Freund's adjuvant (Until it was used, the antiserum was stored undiluted at -18° C.).
Then the lung strips were fixed singly with one end to the bottom of 10-milliliter organ baths, and with the upper end to isometric measuring devices for the recording of the constrictions of the lung strips through an amplifier on a plotter. The tenseron was adjusted to 1.2 g weight.
Then the baths were filled with Krebs' buffer and continually gassed at 37° C. with O2 (95%) and CO2 (5%).
After a 30-minute equilibration phase, histamine control spasms were produced in order to establish the reactivity of the lung specimens, washed, then the test substance was preincubated for 20 minutes at 37° C., and the ovalbumin constriction was produced.
The inhibiting action of the compounds according to the invention was expressed as percentage reduction of the constriction amplitude of the "specimens with the test substance" in proportion to the "untreated control constrictions."

For the molecule `N#Cc1cccc(CN(c2ncnc3[nH]ncc23)C2CCCC2)c1` [Example 2i, 4-[N--(3-cyanobenzyl)-cyclopentylamino]-1H--pyrazolo[3,4-d]pyrimidine], the inhibition (as a rule, the relative decrease from the control value, in per cent) at 10 µM is 35%. Under `Clc1ccc(Cl)c(CN(c2ncnc3[nH]ncc23)C2CCCC2)c1` [Example 2j, 4-[N--(2,5-dichlorobenzyl)-cyclopentylamino] -1H--pyrazolo[3,4-d]pyrimidine] stands 29%; under `CCOC(=O)c1cccc(CN(c2ncnc3[nH]ncc23)C2CCCC2)c1` [Example 2g, 4-[N--(3-ethoxycarbonylbenzyl)-cyclopentylamino]-1H--pyrazolo[3,4-d]pyrimidine], 40%; under `Cc1ccc(C)c(CN(c2ncnc3[nH]ncc23)C2CCCC2)c1` [Example 2n, 4-[N--(2,5-dimethylbenzyl)-cyclopentylamino]-1H--pyrazolo[3,4-d]pyrimidine], 32%. As for `Clc1ccc(CN(c2ncnc3[nH]ncc23)C2CCCC2)cc1Cl` [Example 2k, 4-[N--(3,4-dichlorobenzyl)-cyclopentylamino]-1H--pyrazolo[3,4-d]pyrimidine], the inhibition at 10 µM is 32%. Under `c1coc(CN(c2ncnc3[nH]ncc23)C2CCCC2)c1` [Example 2o, 4-[N--(2-furylmethyl)-cyclopentylamino]-1H--pyrazolo[3,4-d]pyrimidine] stands 39%. In the case of `c1csc(CN(c2ncnc3[nH]ncc23)C2CCCC2)c1` [Example 2p, 4-[N--(thiophen-2-ylmethyl)-cyclopentylamino]-1H--pyrazolo[3,4-d]pyrimidine] it was 37%; in that of `COc1cccc(CN(c2ncnc3[nH]ncc23)C2CCCC2)c1` [Example 2d, 4-[N--(3-methoxybenzyl)-cyclopentylamino]-1H--pyrazolo[3,4-d]pyrimidine], 36%; in that of `OCC(O)Cn1ncc2c(N(Cc3cccc(C(F)(F)F)c3)C3CCCC3)ncnc21` (stereo not shown) [Example 4b, 4-[N--(3-trifluoromethylbenzyl)-cyclopentylamino]-1-(2,3-dihydroxypropyl)-1H--pyrazolo[3,4-d]pyrimidine], 36%. In the case of `Cc1ccc(Cl)cc1CN(c1ncnc2[nH]ncc12)C1CCCC1` [Example 2l, 4-[N--(5-chloro-2-methylbenzyl)-cyclopentylamino]-1H--pyrazolo[3,4-d]pyrimidine] it was 32%.

Source of the values: patent publication US4904666A, “Pyrazolo(3,4-d)pyrimidine compounds, compositions and method of use” (Boehringer Mannheim GmbH, priority 1987, dated 1990).
